Test results published in US8906884B2, “Method of treating graft-rejection using dextran sulfate” (TX Medic AB, priority 2002, dated 2014).
Where two headings read alike, the source gives them in different places.

Experiments:
[1] = tested on: Porcine aortic endothelial cells; conditions: 25 mg/ml, in words; cited from earlier work
[2] = tested on: clot formation induced by API in human blood; conditions: for Clot formation / clotting time versus no additives: 0.01 and 0.1 mg/ml, in words
Description: Blood was drawn from four healthy volunteers into Vacutainer™ tubes containing citrate. Whole blood (980 μl) was incubated with 2 μl of API at 37° C. in polypropylene sample cups in a ReoRox™ rheometer (Global Haemostasis International, Gothenburg, Sweden). […] Every 6 s, the cup was set into free torsional oscillation around its vertical axis, and the damping and frequency of the oscillation was registered. Clotting time was identified as the point of maximal damping.

[3] = tested on: IBMIR triggered by API in fresh human blood
Description: (§1) This protocol is basically performed as previously described with some modifications. In general words, loops made of PVC (diameter 6.3 mm, length 390 mm), whose inner surface was furnished with immobilized heparin, were used. The tubing was held together with a specially designed heparinized connector. A circular loop was formed when the ends of the connector were tightly pushed into the lumen of the tubing ends. A rocking apparatus, placed in a 37° C. incubator, was used to generate blood flow inside the loops. The loops were rocked at a setting that prevented the blood from coming in contact with the connectors.
(§2) Seven 60-min islet experiments were performed, using API isolated from four different pigs. […] For each experiment, one loop containing fresh human blood and saline without API was included as a control. […] Concurrently, pre-incubation of human blood with 1 mg/ml of LMW-dextran, which was not sulfated, was tested in five experiments. In each experiment, 7 ml of fresh human blood from the same donor was added to each loop. […] Thereafter, the loops were opened, and 100 μl of saline with or without 5 μl of API (approximately 5,000 IEQ) was added to the loops and followed by another 60-min incubation on the rocking device at 37° C. Blood glucose levels were measured with a glucometer (Glucometer Elite; Bayer Diagnostics, Leverkusen, Germany) before the perfusion.
After every perfusion, the loop contents were filtered through 70 μm-diameter filters (Filcons, Cuptype; DAKO, Denmark). Both macroscopic blood clots and tissue recovered on the filters were snap-frozen in isopentane for immunohistochemical staining. The remaining filtered blood was collected in 4.1 mM EDTA (final concentration) and used for hematological analysis (platelets, lymphocytes, monocytes, and granulocytes) and assays of coagulation activation (thrombin-antithrombin [TAT], factor XIa-antithrombin complexes [FXIa-AT], and factor XIIa-antithrombin complexes [FXIIa-AT]), fibrinolysis activation (plasmin-alpha 2 antiplasmin complexes [PAP]), complement activation (C3a and sC5b-9), and C1 esterase inhibitor activation (factor XIa-C1 esterase inhibitor [FXIa-C1 INH], factor XIIa-C1 esterase inhibitor [FXIIa-C1 INH]). Samples taken at 0, 15, and 30 min were also analyzed. In 0-min samples, the blood was not added to the tubing loop but was instead transferred immediately to the EDTA-containing tubes. The blood samples were centrifuged at 4° C. at 3290×g for 20 min, and the plasma was collected and stored at −70° C. until analyzed.
Platelet counts and differential leukocyte counts were analyzed on a Coulter ACT-diff analyzer (Beckman Coulter, Fla., USA) using EDTA-treated blood. TAT and PAP were quantified using commercially available enzyme immunoassays (EIA) kits (Enzygnost TAT, Behringswerke, Marburg, Germany; Imuclone® PAP, American Diagnostica Inc., Greenwich, USA). FXIa-AT, FXIIa-AT, FXIa-C1 INH, and FXIIa-C1 INH were analyzed according to the method of Sanchez et al.. C3a was analyzed as previously described by Nilsson Ekdahl et al., and sC5b-9 was analyzed using a modification of the EIA described by Mollnes et al..

complement system = conditions: FIG. 3, in words
Description: At 5, 10, 15, 30, 45, and 60 min after serum incubation at 37° C., 100 μl of serum was transferred to tubes containing 10 mM EDTA. These samples were stored at −70° C. before analysis of the complement components C3a and sC5b-9.
Filled bars represent generation of C3a and unfilled correspond to sC5b-9.

[4] = tested on: API graft in diabetic athymic mice; conditions: implantation site liver, i.v. treatment, n = 5; duration of normoglycemia
Description: Diabetes was induced in athymic mice by intravenous (i.v.) injection of steptozotocin from Sigma Chemicals (Palo Alto, Calif., USA) according to Wennberg et al.. The steptozotocin dose was 250 mg/kg body weight for the athymic mice. An animal was considered diabetic if its blood glucose (B-glucose) level exceeded 20 mmol/l (>360 mg/dl) for 2 or more consecutive days.
(§3) After being cultured for 4 days, 5 μl of API (˜5000 IEQs) from five isolations were transplanted into the liver via the portal vein of 11 male inbred diabetic athymic mice, which were anesthetized during surgery with isoflurene. […] Six (untreated) mice were injected with an equivalent volume of saline in the same manner.
Blood glucose levels were measured in blood obtained from tails of recipients using a Glucometer Elite® B-glucose measuring instrument (Bayer AB, Gothenburg, Sweden). Measurements were taken daily before 12 am and expressed as mmol/l (1 mmol/l≈18 mg/dl). Loss of graft function was considered to have occurred if B-glucose levels exceeded 11.1 mmol/l (>200 mg/dl) for 2 or more consecutive days. Post-transplant duration of normoglycemia (<200 mg/dl) was defined as the graft survival period.

[5] = tested on: porcine islets perfused with human blood
Description: as §1, §2
(§4) Islets were sectioned and subsequently stained with horseradish peroxidase (HRP) conjugated mouse anti-human CD41a (R&D Systems, Abigdon, UK) and anti-CD11b^+ (Clone 2LPM 19c, DAKO, Carpinteria, Calif., USA). In the in vivo study, the API-containing mouse livers were retrieved 10 days after transplantation and snap-frozen in isopentane. The samples were sectioned and stained with guinea pig anti-insulin (DAKA, Carpinteria, Calif., USA) and rat anti-mouse CD11b^+ (Serotec Ltd. Scandinavia, Oslo, Norway).

[6] = tested on: porcine islets transplanted into diabetic athymic mice
Description: as §3, §4

pig lungs = conditions: 2 mg/ml; HAR after 30 min without; cited from earlier work
[7] = tested on: STZ-induced diabetic mice; conditions: intraperitoneal, intrahepatic islets, in words; cited from earlier work
[8] = cited from earlier work
[9] = Table 4 comparison, 60 min API perfusion, 1 mg/ml, n = 5
[10] = after 60 min perfusion, API with 0.01 mg/ml, n = 7
[11] = after 60 min perfusion, API with 0.1 mg/ml, n = 7
[12] = after 60 min perfusion, API with 1 mg/ml, n = 7
[13] = continuous injection about 45 mg/hour, in words

Substance: CMDB25 dextran sulfate
- Complement activation and cytolytic complex deposition on the cells [1]: inhibited

Substance: High molecular weight dextran sulfate [HMW-DS]
- Clot formation / clotting time versus no additives [2]: inhibited clot formation only at 0.1 mg/ml
- Clotting time ([2]; experiment 1, 0.01 mg/ml): 15.8 min
- Clotting time ([2]; experiment 1, 0.1 mg/ml): >60 min
- Clotting time ([2]; experiment 2, 0.01 mg/ml): 36.9 min
- Clotting time ([2]; experiment 2, 0.1 mg/ml): >60 min
- Clotting time ([2]; experiment 3, 0.01 mg/ml): 21.0 min
- Clotting time ([2]; experiment 3, 0.1 mg/ml): >60 min
- Clotting time ([2]; experiment 4, 0.01 mg/ml): 38.3 min
- Clotting time ([2]; experiment 4, 0.1 mg/ml): >60 min

Substance: Low molecular weight dextran [LMW-D, reference compound]
- Clot formation / clotting time versus no additives [2]: extended the clotting time to only a minor degree
- Clotting time ([2]; experiment 1, 0.01 mg/ml): 19.2 min
- Clotting time ([2]; experiment 1, 0.1 mg/ml): 25.2 min
- Clotting time ([2]; experiment 2, 0.01 mg/ml): 11.3 min
- Clotting time ([2]; experiment 2, 0.1 mg/ml): 25.8 min
- Effect on IBMIR ([3]; 1 mg/ml, 60 min API perfusion, in words): only a marginal effect
- C3a [3, 9]: 1490.3 ± 406.4 ng/mL
- FXIa-AT [3, 9]: 1.09 ± 0.08 µmol/L
- Granulocytes (×10^9/l) [3, 9]: 1.90 ± 0.43 ×10^9/l
- Lymphocytes (×10^9/l) [3, 9]: 2.14 ± 0.32 ×10^9/l
- Monocytes (×10^9/l) [3, 9]: 0.29 ± 0.08 ×10^9/l
- Platelets (×10^9/l) [3, 9]: 44.9 ± 18.7 ×10^9/l
- TAT [3, 9]: 4429.2 ± 2002.5 µg/mL
- sC5b-9 (AU/ml) [3, 9]: 157.3 ± 19.1 AU/ml

Substance: Low molecular weight dextran sulfate [LMW-DS]
- Clot formation / clotting time versus no additives [2]: totally abrogated
- Clotting time ([2]; experiment 1, 0.01 mg/ml): >60 min
- Clotting time ([2]; experiment 1, 0.1 mg/ml): >60 min
- Clotting time ([2]; experiment 2, 0.01 mg/ml): >60 min
- Clotting time ([2]; experiment 2, 0.1 mg/ml): >60 min
- Clotting time ([2]; experiment 3, 0.01 mg/ml): >60 min
- Clotting time ([2]; experiment 3, 0.1 mg/ml): >60 min
- Clotting time ([2]; experiment 4, 0.01 mg/ml): >60 min
- Clotting time ([2]; experiment 4, 0.1 mg/ml): >60 min
- Generation of C3a ([3]; 0.01 mg/ml, FIG. 1, in words): significantly reduces
- Coagulation activation products TAT, FXIa-AT and FXIIa-AT ([3]; 0.01 mg/ml, in words): suppressed
- PAP ([3]; 0.01 mg/ml, in words): significantly suppressed
- Generation of C3a and membrane attack complex sC5b-9 ([3]; 0.1 mg/ml and 1 mg/ml, FIGS. 1 and 2, in words): totally inhibits
- C3a [3, 9]: 171.5 ± 72.4 ng/mL
- FXIa-AT [3, 9]: 1.56 ± 0.82 µmol/L
- Granulocytes (×10^9/l) [3, 9]: 3.23 ± 0.21 ×10^9/l
- Lymphocytes (×10^9/l) [3, 9]: 1.94 ± 0.12 ×10^9/l
- Monocytes (×10^9/l) [3, 9]: 0.38 ± 0.10 ×10^9/l
- Platelets (×10^9/l) [3, 9]: 181.1 ± 16.3 ×10^9/l
- TAT [3, 9]: 12.8 ± 4.9 µg/mL
- sC5b-9 (AU/ml) [3, 9]: 41.6 ± 11.5 AU/ml
- C3a [3, 10]: 630.6 ± 103.4 ng/mL
- FXIIa-AT [3, 10]: 0.08 ± 0.02 µmol/L
- FXIIa-C1 inh [3, 10]: 0.10 ± 0.03 µmol/mL
- FXIa-AT [3, 10]: 0.13 ± 0.01 µmol/L
- Granulocytes (×10^9/l) [3, 10]: 2.20 ± 0.40 ×10^9/l
- Lymphocytes (×10^9/l) [3, 10]: 1.90 ± 0.11 ×10^9/l
- Monocytes (×10^9/l) [3, 10]: 0.48 ± 0.10 ×10^9/l
- PAP [3, 10]: 398.2 ± 60.7 ng/mL
- Platelets (×10^9/l) [3, 10]: 108.2 ± 12.9 ×10^9/l
- TAT [3, 10]: 645.3 ± 177.4 µg/mL
- sC5b-9 (AU/ml) [3, 10]: 151.4 ± 27.9 AU/ml
- C3a [3, 11]: 191.7 ± 36.6 ng/mL
- FXIa-AT [3, 11]: 0.08 ± 0.01 µmol/L
- Granulocytes (×10^9/l) [3, 11]: 2.80 ± 0.50 ×10^9/l
- Lymphocytes (×10^9/l) [3, 11]: 1.91 ± 0.12 ×10^9/l
- Monocytes (×10^9/l) [3, 11]: 0.40 ± 0.07 ×10^9/l
- Platelets (×10^9/l) [3, 11]: 146.1 ± 8.1 ×10^9/l
- TAT [3, 11]: 61.0 ± 8.6 µg/mL
- sC5b-9 (AU/ml) [3, 11]: 61.9 ± 6.5 AU/ml
- C3a [3, 12]: 215.6 ± 52.2 ng/mL
- FXIa-AT [3, 12]: 1.17 ± 0.41 µmol/L
- Granulocytes (×10^9/l) [3, 12]: 2.92 ± 0.37 ×10^9/l
- Lymphocytes (×10^9/l) [3, 12]: 1.89 ± 0.10 ×10^9/l
- Monocytes (×10^9/l) [3, 12]: 0.31 ± 0.05 ×10^9/l
- Platelets (×10^9/l) [3, 12]: 162.3 ± 8.9 ×10^9/l
- TAT [3, 12]: 15.0 ± 5.6 µg/mL
- sC5b-9 (AU/ml) [3, 12]: 53.9 ± 7.1 AU/ml
- Coagulation and complement activation ([3]; dose-dependent, in words): reduced
- Blood cell consumption ([3]; in words): inhibited
- Macroscopic clotting ([3]; in words): prevented
- FXIIa-C1 INH ([3]; presence or absence of LMW-DS, in words): did not change
- Generation of C3a and sC5b-9 in human serum (complement system; 0.01 mg/ml): increased generation
- Generation of C3a and sC5b-9 in human serum (complement system; 1 mg/ml): inhibitory effect
- Mean graft survival [4]: 8.8 ± 1.9 days
- Number of infiltrating CD11b+ cells ([5]; 1 mg/ml, 60 min, FIG. 5, in words): decreased considerably
- Clot formation around islets ([5]; 1 mg/ml, 60 min, in words): complete inhibition
- Layer of platelets adhering to the islets ([5]; FIG. 7, in words): much thinner layer
- Frequency of clot formation and intensity of leukocyte infiltration versus untreated recipients ([6]; p=0.034, in words): significantly lower
- Islets entrapped in clots ([6]; treated mice, FIG. 9, in words): only a few islets
- Infiltrating CD11b+ (MAC-1+) cells ([6]; treated mice, FIG. 11, in words): markedly fewer

Substance: Native dextran
- Complement activation and cytolytic complex deposition on the cells [1]: no such an effect

Substance: dextran sulfate
- Lung survival (pig lungs): about 200 min
- Effect of dextran sulfate alone on hyperglycemia [7]: some beneficial effect in a few mice

Substance: dextran sulfate [dextran sulfate (MW 8 000 Da)]
- Blood concentration ([8]; continuous injection about 45 mg/hour for 2-3 weeks): approximately 0.01 mg/ml
- Alopecia [8, 13]: reported in about half of the patients
- Thrombocytopenia [8, 13]: observed after 3 days treatment

Substance: high molecular weight dextran [HMW-D, reference compound]
- Clot formation / clotting time versus no additives [2]: extended the clotting time to only a minor degree
- Clotting time ([2]; experiment 1, 0.01 mg/ml): 19.8 min
- Clotting time ([2]; experiment 1, 0.1 mg/ml): 14.2 min
- Clotting time ([2]; experiment 2, 0.01 mg/ml): 13.8 min
- Clotting time ([2]; experiment 2, 0.1 mg/ml): 33.2 min
